Experimental data as given in patent US10463646B2, “Micellar polymer-flavonoid conjugate nanocomplex” (Agency for Science, Technology and Research, priority 2014, dated 2019).

Experiments:
[1] = 0.05 M phosphate-buffered saline (PBS) (pH 7.4) at 37° C.; cited from earlier work
[2] = rat; cited from earlier work
[3] = Body weight in the ACHN xenograft oral study; format: in vivo, mouse; details: oral gavage daily
Method: (§1) To study the toxicity and therapeutic effect, in vivo studies were conducted on the micellar nanocomplexes. A subcutaneous renal cell carcinoma model was established. Adult female Balb/c athymic, immunoincompetent nude mice (average weight=19 g, age=6-8 weeks) were used.
To investigate the therapeutic effect of SU/PEG-mEGCG MNC via oral administration, a xenograft tumor model was established by inoculating 4×10^6 ACHN cells suspended in 100 μl of PBS and 100 μl of Matrigel (BD Bioscience) subcutaneously into the root of the right thigh of the mouse. Once the tumors reached a volume of 200 mm^3, the animals were divided into four groups for oral gavage of various solutions (n=8 per group) daily for 5 weeks: control (citrate buffer pH5), SU/PEG-mEGCG 8:1 (SU at 15 mg/kg), SU at 15 and 40 mg/kg. Tumors were measured twice weekly with a digital caliper, and the tumor volumes (mm^3) were calculated from the following formula: volume=(length×width^2)/2 (FIGS. 16 and 17).

[4] = Body weight / toxicity in the A498-luc xenograft study; format: in vivo, mouse
Method: as §1
To study the therapeutic effect of SU/PEG-EGCG micellar nanocomplexes by intravenous injection, a xenograft tumor model was established by inoculating 6×10^6 A498-luc cells subcutaneously into the root of the left thigh of the mouse. On day 6 after tumor inoculation, the animals were divided into four groups for tail vein injection of various solutions (n=8 per group) twice weekly for 5 weeks, while one group received daily SU gavaging at 60 mg/kg. For the tail vein injection, a volume of 200 μl of sample solution was used.
To monitor bioluminescent signals from A498-luc cells, isoflurane gas-anesthetized animals were injected intraperitoneally with 200 μl of D-luciferin (5 mg ml^−1, Promega) in PBS, and placed on a warmed stage (30° C.) inside the camera box of the IVIS imaging system (Xenogen, Alameda, Calif., USA) with a CCD camera. […] Images and measurements of luminescent signals were acquired and analyzed with the Xenogen imaging software v3.2 and quantified as photons/s. Tumor size and body weight were measured on a weekly basis. […]

Structure (SMILES)	half-life [1]	effect of EGCG administration on plasma concentrations of SU [2]	weight loss ([3]; SU at 15 mg/kg)	body weight ([3]; SU at 40 mg/kg)	body weight ([4]; daily oral gavage 60 mg/kg, one week after commencement of treatment)	toxicity of oral dose ([4]; mouse, in vivo, po, 60 mg/kg/day)
O=C(O[C@@H]1Cc2c(O)cc(O)cc2O[C@@H]1c1cc(O)c(O)c(O)c1)c1cc(O)c(O)c(O)c1 [EGCG, (−)-Epigallocatechin-3-gallate]	less than 30 minutes	markedly reduced				
CCN(CC)CCNC(=O)c1c(C)[nH]c(/C=C2\C(=O)Nc3ccc(F)cc32)c1C [SU, Sunitinib]			not observed	significant weight loss	significant weight loss	too toxic
